Data on one compound can be found in publication PMC3933419, “Synthesis and Properties of a Selective Inhibitor of Homeodomain–Interacting Protein Kinase 2 (HIPK2)” (PLoS ONE, 2014).

For one data set, the target named is T1, endogenous HIPK2 (Homo sapiens, UniProt Q9H2X6).
T1 construct: endogenous in cells; host or cells: HepG2
The data set can be described thus: Activity of HIPK2 immunoprecipitated from treated HepG2 cells. The format is cell-based. On the procedure: (§1) HepG2 cells (human hepatocellular carcinoma) were cultured in Dulbecco's modified Eagle's medium (DMEM; Sigma) supplemented with 10% fetal calf serum, 2 mM L-glutamine, 100 unit/ml penicillin and 100 µg/ml streptomycin; CEM cells (human T lymphoblastoid cells) were cultured n RPMI-1640 (Sigma) with the same supplements. Cells were cultured in an atmosphere containing 5% CO2, at 37°C. Treatments with TBID were performed in the same medium but with 1% fetal calf serum; control cells were treated with the solvent (DMSO). Total cell lysates were prepared as in [29].
Alternatively, HIPK2 was immunoprecipitated with 2.5 µl anti-HIPK2 (Epitomics) from 350 µg of total lysate proteins deriving from HepG2 cells either treated or not with TBID following a protocol elsewhere described. An aspecific antibody was used as negative control. Immunoprecipitated HIPK2 activity was measured towards the specific peptide substrate ([…]) at 1.6 mM concentration, for 10 min at 30°C, under the same conditions described above for the in vitro kinase assay. Peptide radioactivity was measured after sample spotting on phospho-cellulose paper, washing and scintillation counting, as in [30], while the amount of HIPK2 immunoprecipitated was evaluated by WB.

The next data set has as its system CK1. The experiment in a line: CK1 phosphorylation assay. In kind it is biochemical, rat. The following applies: 20 µM ATP. The method, then:
(§2) Native CK2 and CK1 were purified from rat liver.
(§3) PIM1, CK2, CK1 phosphorylation assays were performed following similar procedures used for HIPK2 except that preincubation was omitted. In detail, PIM1 activity was determined at 100 µM ATP concentration and in the presence of 30 µM synthetic peptide substrate […]. CK2 and CK1 activities were assayed in a buffer containing 50 mM Tris/HCl (pH 7.5), 100 mM NaCl, 12 mM MgCl2, 100 µM specific peptide substrate […] (for CK2), or 200 µM […] (for CK1) and 20 µM [γ-^33P]ATP (500–1000 c.p.m./pmol).

The target of a further data set is T2, HIPK2 (Homo sapiens, UniProt Q9H2X6).
T2 construct: The source of HIPK2 and of all of the other protein kinases used for specificity assays is as described elsewhere
The experiment in a line: HIPK2 kinase inhibition assay (33P-ATP, peptide […]). The format is biochemical. Conditions: 20 µM ATP; in vitro. The method, then: The source of HIPK2 and of all of the other protein kinases used for specificity assays is as described elsewhere. […] The reaction was stopped by addition of 5 μl of 0.5 M orthophosphoric acid before spotting aliquots onto phosphocellulose filters. Filters were washed in 75 mM phosphoric acid (5-10 ml/each) four times and then once in methanol and dried before counting.

In another data set the test system is HepG2 or CEM cells. The data set can be described thus: Cell viability (MTT) and PARP cleavage. The format is cell-based, human. Conditions: 6 h, PARP (Figure 6C). The method, then: as §1
Cell viability was evaluated by means of MTT (3-(4,5-dimethylthiazol-2-yl)-[…] bromide) reagent; 10^5 cells/100 µl were incubated in a 96-well plate and treated for 6 h as indicated. 1 h before the end of the incubation, 10 µl of MTT solution (5 mg/ml in PBS) was added to each well. Incubations were stopped by addition of 20 µl of lysis solution at pH 4.7, as described elsewhere. Plates were read for OD at λ 590 nm, in a Titertek Multiskan Plus plate reader (Flow Laboratories). Apoptosis was evaluated looking for the cleavage of the caspase substrate PARP with anti-PARP antibody (Roche), recognizing both the full length (116 kDa) and the cleaved fragment (85 kDa) of PARP.

The target of another data set is TIE2 (Homo sapiens, UniProt Q02763). The experiment in a line: Kinase panel selectivity profiling. The format is biochemical. Conditions: TBID 1 μM, 125 kinase panel, read-out: % activity of the enzyme. The text has this: (§4) The source of HIPK2 and of all of the other protein kinases used for specificity assays is as described elsewhere.
(§5) Conditions for the activity assays of all other protein kinases tested in selectivity experiments are as described or referenced in [9].

The target of the next data set is RIPK2 (Homo sapiens, UniProt O43353). The experiment in a line: Kinase panel selectivity profiling. In kind it is biochemical. Conditions: TBID 1 μM, 125 kinase panel, read-out: % activity of the enzyme.
Description: as §4, §5

A further data set deals with Lck (Homo sapiens, UniProt P06239). The experiment in a line: Kinase panel selectivity profiling. The following applies: TBID 1 μM, 125 kinase panel, read-out: % activity of the enzyme. In kind it is biochemical.
Description: as §4, §5

For another data set, the target named is DYRK1A (Homo sapiens, UniProt Q13627). The experiment in a line: Kinase panel selectivity profiling. In kind it is biochemical.
Description: as §4, §5

The target of the next data set is TLK1 (Homo sapiens, UniProt Q9UKI8). The data set can be described thus: Kinase panel selectivity profiling. Conditions: TBID 1 μM, 125 kinase panel, read-out: % activity of the enzyme. The format is biochemical.
Description: as §4, §5

A further data set has as its target EPH-B2 (Homo sapiens, UniProt P29323). The data set can be described thus: Kinase panel selectivity profiling. In kind it is biochemical. Conditions: TBID 1 μM, 125 kinase panel, read-out: % activity of the enzyme.
Description: as §4, §5

A further data set has as its target IGF-1R (Homo sapiens, UniProt P08069). The experiment in a line: Kinase panel selectivity profiling. The following applies: TBID 1 μM, 125 kinase panel, read-out: % activity of the enzyme. In kind it is biochemical.
Description: as §4, §5

Another data set addresses IKKb (Homo sapiens, UniProt O14920). The data set can be described thus: Kinase panel selectivity profiling. The format is biochemical. The following applies: TBID 1 μM, 125 kinase panel, read-out: % activity of the enzyme.
Description: as §4, §5

A further data set deals with MARK1 (Homo sapiens, UniProt Q9P0L2). The data set can be described thus: Kinase panel selectivity profiling. The format is biochemical. The following applies: TBID 1 μM, 125 kinase panel, read-out: % activity of the enzyme.
Description: as §4, §5

Another data set concerns the target JNK2 (Homo sapiens, UniProt P45984). The data set can be described thus: Kinase panel selectivity profiling. In kind it is biochemical. Conditions: TBID 1 μM, 125 kinase panel, read-out: % activity of the enzyme.
Description: as §4, §5

The next data set has as its target TESK1 (Homo sapiens, UniProt Q15569). The data set can be described thus: Kinase panel selectivity profiling. The format is biochemical. Conditions: TBID 1 μM, 125 kinase panel, read-out: % activity of the enzyme.
Description: as §4, §5

For the next data set, the target named is T3, CK2 (Rattus norvegicus, UniProt P19139).
T3 construct: Native CK2 and CK1 were purified from rat liver; from tissue; host or cells: rat liver
The experiment in a line: CK2 phosphorylation assay. The format is biochemical. The following applies: 20 µM ATP. The method, then: as §2, §3

For data set [1], the system named is panel of 76 protein kinases. The experiment in a line: Selectivity parameters (Lorenz curve, Gini coefficient, hit rate) of TBID. The format is biochemical. The method, then:
as §5
Lorenz curves were derived from the selectivity data. Gini coefficients and hit rates (expressing the percent of kinases inhibited >50% by a given compound) were calculated as described in [25].

Structures are written as SMILES. Values joined by “and” are separate entries in the source; they are usually repeats but may differ in a detail not shown here. Equal entries are not always repeated.

T1 sequence (Q9H2X6 whole entry): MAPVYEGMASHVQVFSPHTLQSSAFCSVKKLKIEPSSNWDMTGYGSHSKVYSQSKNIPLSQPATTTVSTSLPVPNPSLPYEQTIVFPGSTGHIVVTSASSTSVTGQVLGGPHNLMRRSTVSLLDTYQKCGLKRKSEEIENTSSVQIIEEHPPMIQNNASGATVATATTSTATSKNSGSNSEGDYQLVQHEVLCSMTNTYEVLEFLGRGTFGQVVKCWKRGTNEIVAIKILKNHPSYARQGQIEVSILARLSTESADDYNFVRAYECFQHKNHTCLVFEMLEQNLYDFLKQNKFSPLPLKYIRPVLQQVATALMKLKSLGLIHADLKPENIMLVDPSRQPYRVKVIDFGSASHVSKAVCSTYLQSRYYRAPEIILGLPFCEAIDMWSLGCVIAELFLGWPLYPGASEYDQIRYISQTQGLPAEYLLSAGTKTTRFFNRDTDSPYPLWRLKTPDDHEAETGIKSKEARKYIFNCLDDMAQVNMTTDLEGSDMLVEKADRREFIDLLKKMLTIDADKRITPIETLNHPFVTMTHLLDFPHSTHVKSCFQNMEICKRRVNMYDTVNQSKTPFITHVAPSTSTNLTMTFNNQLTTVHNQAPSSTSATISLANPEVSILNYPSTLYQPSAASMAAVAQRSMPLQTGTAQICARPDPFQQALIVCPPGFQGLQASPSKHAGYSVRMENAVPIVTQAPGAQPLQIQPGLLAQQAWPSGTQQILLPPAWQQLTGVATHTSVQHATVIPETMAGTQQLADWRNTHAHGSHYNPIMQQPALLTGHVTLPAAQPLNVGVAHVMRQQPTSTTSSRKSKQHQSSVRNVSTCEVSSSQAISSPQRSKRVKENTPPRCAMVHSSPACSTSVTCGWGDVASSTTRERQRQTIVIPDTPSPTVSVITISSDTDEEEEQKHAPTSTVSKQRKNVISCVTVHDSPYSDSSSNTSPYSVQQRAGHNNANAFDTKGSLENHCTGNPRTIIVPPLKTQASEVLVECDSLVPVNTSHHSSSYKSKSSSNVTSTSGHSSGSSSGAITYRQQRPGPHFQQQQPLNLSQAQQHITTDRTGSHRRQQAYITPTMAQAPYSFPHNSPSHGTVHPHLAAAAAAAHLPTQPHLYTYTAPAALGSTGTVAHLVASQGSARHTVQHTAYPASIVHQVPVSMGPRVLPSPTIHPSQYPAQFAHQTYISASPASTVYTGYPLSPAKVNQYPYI
Sequence of TESK1 (Q15569 whole entry): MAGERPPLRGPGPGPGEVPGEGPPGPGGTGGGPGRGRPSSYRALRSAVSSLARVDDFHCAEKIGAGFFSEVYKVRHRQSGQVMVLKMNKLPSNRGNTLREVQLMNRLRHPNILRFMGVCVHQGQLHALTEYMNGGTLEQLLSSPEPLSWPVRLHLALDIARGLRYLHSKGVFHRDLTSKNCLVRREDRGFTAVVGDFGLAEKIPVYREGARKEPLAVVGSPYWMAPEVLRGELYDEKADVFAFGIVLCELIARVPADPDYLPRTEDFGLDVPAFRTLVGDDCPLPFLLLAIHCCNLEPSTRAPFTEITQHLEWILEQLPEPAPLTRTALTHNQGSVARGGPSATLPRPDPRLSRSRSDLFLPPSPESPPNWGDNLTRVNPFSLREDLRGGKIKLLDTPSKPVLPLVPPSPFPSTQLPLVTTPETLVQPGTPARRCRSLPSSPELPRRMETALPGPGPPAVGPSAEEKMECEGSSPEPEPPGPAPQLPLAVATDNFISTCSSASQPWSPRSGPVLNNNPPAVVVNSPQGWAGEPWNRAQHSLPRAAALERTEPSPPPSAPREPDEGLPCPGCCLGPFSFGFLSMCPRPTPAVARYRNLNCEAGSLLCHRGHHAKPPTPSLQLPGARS
Sequence of RIPK2 (O43353 whole entry): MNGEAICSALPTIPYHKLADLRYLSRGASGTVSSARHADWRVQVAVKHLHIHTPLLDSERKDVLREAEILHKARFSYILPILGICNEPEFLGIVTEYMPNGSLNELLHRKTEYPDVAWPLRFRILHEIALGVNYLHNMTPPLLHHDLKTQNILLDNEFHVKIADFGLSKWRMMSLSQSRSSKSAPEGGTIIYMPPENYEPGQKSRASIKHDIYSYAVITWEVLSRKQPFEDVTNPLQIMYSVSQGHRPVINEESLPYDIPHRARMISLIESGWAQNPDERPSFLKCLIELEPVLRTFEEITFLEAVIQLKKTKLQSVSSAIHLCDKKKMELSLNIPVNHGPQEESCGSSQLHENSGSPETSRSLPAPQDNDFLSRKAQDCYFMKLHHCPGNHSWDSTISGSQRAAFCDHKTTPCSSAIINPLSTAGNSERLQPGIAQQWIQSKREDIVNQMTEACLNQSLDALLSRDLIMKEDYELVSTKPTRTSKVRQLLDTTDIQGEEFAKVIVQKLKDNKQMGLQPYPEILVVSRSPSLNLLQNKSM
T3 sequence (P19139 whole entry): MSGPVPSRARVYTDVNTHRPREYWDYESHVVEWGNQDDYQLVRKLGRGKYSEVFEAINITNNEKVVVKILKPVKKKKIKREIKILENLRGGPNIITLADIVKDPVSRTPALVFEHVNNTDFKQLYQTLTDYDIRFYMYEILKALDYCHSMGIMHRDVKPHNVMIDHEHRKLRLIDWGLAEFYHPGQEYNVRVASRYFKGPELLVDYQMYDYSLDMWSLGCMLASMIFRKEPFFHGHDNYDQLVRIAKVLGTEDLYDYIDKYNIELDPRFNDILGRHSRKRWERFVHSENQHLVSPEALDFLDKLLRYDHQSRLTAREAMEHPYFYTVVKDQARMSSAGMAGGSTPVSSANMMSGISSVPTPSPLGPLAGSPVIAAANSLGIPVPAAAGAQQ
T3 sequence (P67874 whole entry partner): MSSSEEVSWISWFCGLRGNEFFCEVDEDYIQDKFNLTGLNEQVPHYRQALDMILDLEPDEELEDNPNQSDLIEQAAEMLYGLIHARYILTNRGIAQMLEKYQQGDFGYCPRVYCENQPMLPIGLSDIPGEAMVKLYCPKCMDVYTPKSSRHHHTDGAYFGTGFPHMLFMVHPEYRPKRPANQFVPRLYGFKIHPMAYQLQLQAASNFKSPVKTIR
Sequence of JNK2 (P45984 whole entry): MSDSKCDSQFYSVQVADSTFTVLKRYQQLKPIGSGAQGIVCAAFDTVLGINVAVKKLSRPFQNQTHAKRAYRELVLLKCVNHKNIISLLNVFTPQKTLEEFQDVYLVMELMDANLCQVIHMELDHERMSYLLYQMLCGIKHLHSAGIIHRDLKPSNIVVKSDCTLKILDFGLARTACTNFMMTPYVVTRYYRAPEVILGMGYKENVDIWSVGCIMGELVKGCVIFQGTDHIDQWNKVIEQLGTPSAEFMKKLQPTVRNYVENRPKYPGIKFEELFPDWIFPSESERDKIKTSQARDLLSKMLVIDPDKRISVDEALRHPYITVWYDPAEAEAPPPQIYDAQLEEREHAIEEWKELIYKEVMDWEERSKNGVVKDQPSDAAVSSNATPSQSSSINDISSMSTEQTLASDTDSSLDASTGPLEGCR
Sequence of IKKb (O14920 whole entry): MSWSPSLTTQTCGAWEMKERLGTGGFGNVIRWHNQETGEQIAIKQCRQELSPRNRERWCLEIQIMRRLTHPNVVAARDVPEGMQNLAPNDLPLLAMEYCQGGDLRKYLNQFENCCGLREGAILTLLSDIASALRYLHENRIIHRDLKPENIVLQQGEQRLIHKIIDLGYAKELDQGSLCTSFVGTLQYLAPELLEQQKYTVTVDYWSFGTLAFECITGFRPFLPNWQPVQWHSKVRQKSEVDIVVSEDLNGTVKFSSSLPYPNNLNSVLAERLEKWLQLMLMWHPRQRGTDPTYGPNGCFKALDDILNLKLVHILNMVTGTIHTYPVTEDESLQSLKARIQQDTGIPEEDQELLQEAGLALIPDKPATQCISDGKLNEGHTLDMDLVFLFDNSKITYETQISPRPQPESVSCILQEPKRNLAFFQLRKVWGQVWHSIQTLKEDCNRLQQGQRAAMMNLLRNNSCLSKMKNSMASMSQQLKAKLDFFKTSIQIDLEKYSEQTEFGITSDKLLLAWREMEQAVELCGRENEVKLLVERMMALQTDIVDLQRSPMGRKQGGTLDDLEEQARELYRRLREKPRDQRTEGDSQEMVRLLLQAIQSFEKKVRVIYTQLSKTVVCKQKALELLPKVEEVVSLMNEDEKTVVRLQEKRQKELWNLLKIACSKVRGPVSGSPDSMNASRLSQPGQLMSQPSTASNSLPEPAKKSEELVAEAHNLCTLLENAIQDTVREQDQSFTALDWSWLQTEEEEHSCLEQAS
Sequence of Lck (P06239 whole entry): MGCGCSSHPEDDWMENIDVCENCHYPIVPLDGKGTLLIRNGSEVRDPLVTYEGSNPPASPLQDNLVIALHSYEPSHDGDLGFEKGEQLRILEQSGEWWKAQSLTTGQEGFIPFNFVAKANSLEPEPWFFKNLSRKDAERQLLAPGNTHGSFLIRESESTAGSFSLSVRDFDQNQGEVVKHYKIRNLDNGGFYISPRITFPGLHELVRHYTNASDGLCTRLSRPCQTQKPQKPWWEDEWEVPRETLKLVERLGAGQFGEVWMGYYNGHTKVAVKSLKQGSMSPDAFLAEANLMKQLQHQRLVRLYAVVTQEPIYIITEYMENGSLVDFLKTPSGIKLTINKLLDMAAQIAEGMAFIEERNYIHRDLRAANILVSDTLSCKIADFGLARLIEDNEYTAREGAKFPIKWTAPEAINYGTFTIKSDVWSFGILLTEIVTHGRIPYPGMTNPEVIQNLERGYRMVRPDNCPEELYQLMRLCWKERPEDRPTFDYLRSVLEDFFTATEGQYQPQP
T2 sequence (Q9H2X6 whole entry): as the sequence (Q9H2X6 whole entry) above

On to `O=C1c2c(Br)c(Br)c(Br)c(Br)c2C(=O)N1c1ncc[nH]1` [TBID, 4,5,6,7-Tetrabromo-2-(1H-imidazol-2-yl)isoindoline-1,3-dione], for which the IC50 on endogenous HIPK2 (HIPK2 activity in cells treated with TBID, read-out: IC50 in cells (concentration required for half maximal inhibition)) was ~50 µM and 50 µM; in the data set with CK1, above 40 µM; against HIPK2, 0.33 µM; against CK2, 5.5 µM. For the same compound, the “endogenous HIPK2 activity upon cell treatment” value at endogenous HIPK2 (HepG2 cells, increasing concentrations, immunoprecipitated HIPK2) is on record as “reduced in a dose dependent manner”. Besides, the cell toxicity entry in the data set with HepG2 or CEM cells is reported as “devoid of cell toxicity”. In addition, the activity at 1 µM worked out at 115% on TIE2; 102% on RIPK2; 109% at Lck; 104% on DYRK1A (TBID 1 μM, 125 kinase panel, read-out: % activity of the enzyme); 107% on TLK1; 108% at EPH-B2. For the same compound, the activity at 1 µM on IGF-1R was 68%; on IKKb, 99%; at MARK1, 102%; at JNK2, 110%; at TESK1, 103%. For the same compound, the remaining activity at 10 µM on DYRK1A (10 µM TBID, panel of 76 protein kinases, read-out: residual activity) worked out at 72%. In addition, the “number of kinases inhibited >90%” value in [1] (10 µM TBID) came to 1. Moreover, the Gini coefficient in [1] (10 µM, 76 PKs) was determined as 0.592. In [1] (10 µM, 76 PKs, kinases inhibited >50%), the Hit rate is given as 0.10.
